Laboratory results taken from patent EP1003775B1, “HEPATITIS C INHIBITOR PEPTIDES” (BOEHRINGER INGELHEIM (CANADA) LTD., priority 1997, dated 2005).

Tested on: NS3 protease
Test: HCV NS3 protease inhibition (recombinant NS3 protease radiometric assays)
Assay type: biochemical, hepatitis C virus
Details: qualitative statement
Method: The substrate used for the HCV NS3 protease radiometric assay, DDIVPC-SMSYTW, is cleaved between the cysteine and the serine residues by the enzyme. The sequence DDIVPC-SMSYTW corresponds to the NS5A/NS5B natural cleavage site in which the cysteine residue in P2 has been substituted for a proline. The peptide substrate DDIVPC-SMSYTW and the tracer biotin-DDIVPC-SMS[^125I-Y]TW were incubated with the recombinant NS3 protease in the absence or in the presence of inhibitors. The separation of substrate from products was performed by adding avidin-coated agarose beads to the assay mixture followed by filtration. The amount of SMS [^125I-Y]TW product found in the filtrate (with or without inhibitor) allowed for the calculation of the percentage of substrate conversion and of the percentage of inhibition.
The assay was performed in a 96-well polypropylene plate. Each well contained: • 20 µL substrate/tracer in assay buffer; • 10 µL ± inhibitor in 20% DMSO/assay buffer; • 10 µL NS3 protease 1b. […]
The filtrates were counted on a Packard® TopCount instrument using a ^125I-liquid protocol for 1 minute. The %inhibition was calculated with the following equation: 100- [(countsinh -countsblank ) / (countsctl -countsblank ) x 100] […]
The value of IC50 was calculated in the same manner as in Example 19.

Ac-DDIVPC-OH [Ac-D-D-I-V-P-C-OH]
inhibition of the NS3 protease: inhibitory
